The values below come from article PMC11069232, “NB compounds are potent and efficacious FOXM1 inhibitors in high-grade serous ovarian cancer cells” (Journal of Ovarian Research, 2024).

What all share (assay type): cell-based, human
The subject of one assay is CAOV3 cells. Kind of assay: CyQuant cell viability assay, CAOV3. Particulars: for Efficacy: % loss of cell viability at maximum tested concentration. As to the method:
(§1) Cells were seeded into 96-well plates and treated with serial dilutions with the designated compounds for 72 h. Medium was then removed from the wells, and the cells were frozen at -80 °C for storage. After thawing, cell viability was analyzed using the CyQUANT™ Cell Proliferation Assay for cells in culture (Invitrogen, ThermoFisher Scientific, Waltham, MA, USA), according to manufacturer’s instructions. The CyQuant assay utilizes a DNA binding fluorescent dye, and the signal is proportional to the number of live cells, which thus reflects the effect of drug treatment on both cell proliferation and cytotoxicity. To integrate these two measures (proliferation and cytotoxicity) into one simple term, we refer to CyQuant data as a measure of cell viability. Fluorescence intensity was measured using POLARstar OPTIMA microplate multi-detection plate reader (BMG LabTech, Cary, NC, USA) with settings specified by the manufacturer’s instructions.

The next assay has as its system OVCAR4 cells. Kind of assay: CyQuant cell viability assay, OVCAR4. Particulars: for Efficacy: % loss of cell viability at maximum tested concentration. As to the method:
as §1

In the next assay the test system is HGSOC cells. The experiment in a line: CyQuant cell viability assay, HGSOC cells (CAOV3 and OVCAR4), summary in words. Particulars: summary of Table 3. On the procedure: as §1
We investigated the effect of eight previously reported FOXM1 inhibitors on HGSOC cell viability. We utilized CAOV3 and OVCAR4 cells, which are validated to model HGSOC both in vitro and in vivo [38, 39], and measured the effect on cell viability using CyQuant assays. The data are summarized in Table 3 (drugs ordered alphabetically).

Another assay deals with FT282-C11 cells. The experiment in a line: CyQuant cell viability assay, FT282-C11 (immortalized FTE control). Particulars: for Efficacy: % loss of cell viability at maximum tested concentration; for Fold HGSOC cell selectivity: IC50 in FT282-C11 divided by the averaged IC50 values of CAOV3 and OVCAR4 cells. On the procedure:
as §1
To investigate the cancer cell selectivity of FOXM1 inhibitors, we utilized the immortalized (FTE) cell line FT282-C11 as non-malignant, cell of origin matched control. […] We tested a sub-set of FOXM1 inhibitors, including the three NB compounds and the two most widely used FOXM1 inhibitors, thiostrepton and FDI-6.

The mark [1] stands for this setting: Homo sapiens, Caov-3, 72 h, read-out: Potency [IC50 (µM)].
Where [2] appears, read: Homo sapiens, Caov-3, read-out: % Efficacy (maximum dose).
The mark [3] stands for this setting: Homo sapiens, OVCAR-4, 72 h, read-out: Potency [IC50 (µM)].
[4] abbreviates: Homo sapiens, OVCAR-4, read-out: % Efficacy (maximum dose).

Molecules are shown by their SMILES. Read-outs that look alike come from different tables or passages of the source.

For the compound `CC[C@@]1([C@@H]2O[C@@H]([C@H]3O[C@@](O)(CO)[C@H](C)C[C@@H]3C)C[C@@H]2C)CC[C@H]([C@]2(C)CC[C@]3(C[C@H](O)[C@@H](C)[C@@H]([C@@H](C)[C@@H](OC)[C@H](C)C(=O)O)O3)O2)O1` [Monensin, monensin], the Emax with CAOV3 cells (Homo sapiens, Caov-3, CAOV3, % loss of cell viability at the maximum tested drug concentration (printed in parentheses in the cell), Table 3, read-out: % Efficacy (maximum dose)) was 100%; with OVCAR4 cells (Homo sapiens, OVCAR-4, OVCAR4, % loss of cell viability at the maximum tested drug concentration (printed in parentheses in the cell), Table 3, read-out: % Efficacy (maximum dose)), 52%. In addition, the IC50 in the assay with CAOV3 cells (Homo sapiens, Caov-3, CAOV3, cell viability, CyQuant, 72 h, Table 3, read-out: Potency [IC50 (µM)]) was found to be 0.1 µM; with OVCAR4 cells (Homo sapiens, OVCAR-4, OVCAR4, cell viability, CyQuant, 72 h, Table 3, read-out: Potency [IC50 (µM)]) it was 0.024 µM. In addition, the “potency and efficacy on HGSOC cell viability, in words” value (“potency and efficacy” for short) with HGSOC cells is given as “high potency but low efficacy in one cell line (OVCAR4)”.
As for `C=C(NC(=O)C(=C)NC(=O)c1csc(C2=N[C@@H]3c4csc(n4)[C@H]4NC(=O)c5csc(n5)[C@H]([C@](C)(O)[C@@H](C)O)NC(=O)[C@H]5CSC(=N5)/C(=C/C)NC(=O)[C@H]([C@@H](C)O)NC(=O)c5csc(n5)[C@]3(CC2)NC(=O)[C@H](C)NC(=O)C(=C)NC(=O)[C@H](C)NC(=O)[C@H]([C@@H](C)CC)N[C@@H]2C=Cc3c([C@H](C)O)cc(nc3[C@H]2O)C(=O)O[C@@H]4C)n1)C(N)=O` [Thiostrepton], the Efficacy in the assay with CAOV3 cells (CAOV3, Table 4) is listed as 93%; with OVCAR4 cells (OVCAR4, Table 4) it was 99%; in the assay with FT282-C11 cells (FT282-C11, Table 4), 100%. In addition, the IC50 in the assay with CAOV3 cells (Homo sapiens, Caov-3) worked out at 0.62 µM; with CAOV3 cells (setting [1]), 0.62 µM; in the assay on OVCAR4 cells (Homo sapiens, OVCAR-4), 0.98 µM; in the assay with OVCAR4 cells (setting [3]), 0.98 µM; in the assay with FT282-C11 cells (Homo sapiens), 730 nM. Besides, the Emax worked out at 93% in the assay with CAOV3 cells (setting [2]) and 99% in the assay with OVCAR4 cells (setting [4]). In addition, the “Fold HGSOC cell selectivity” value in the assay with FT282-C11 cells is on record as 0.91. Also, the “potency and efficacy” value in the assay on HGSOC cells is “high potency and efficacy”.
In the case of `Nc1c(C(=O)Nc2ccc(F)cc2)sc2nc(-c3cccs3)cc(C(F)(F)F)c12` [FDI-6], the Efficacy was determined as 61% with CAOV3 cells (CAOV3, Table 4); 61% in the assay on OVCAR4 cells (OVCAR4, Table 4); 76% in the assay with FT282-C11 cells (FT282-C11, Table 4). The “% Efficacy (maximum dose)” value in the assay on CAOV3 cells (CAOV3, % loss of cell viability at the maximum tested drug concentration (printed in parentheses in the cell), Table 3) is 61% (20 μM); in the assay with OVCAR4 cells (OVCAR4, % loss of cell viability at the maximum tested drug concentration (printed in parentheses in the cell), Table 3), 61% (20 μM). Further, the IC50 came out at 9.1 µM with CAOV3 cells (CAOV3, CyQuant, Table 4, read-out: IC50); 9.1 µM in the assay on CAOV3 cells (CAOV3, cell viability, CyQuant, 72 h, Table 3, read-out: Potency [IC50 (µM)]); 4.7 µM with OVCAR4 cells (OVCAR4, CyQuant, Table 4, read-out: IC50); 4.7 µM with OVCAR4 cells (OVCAR4, cell viability, CyQuant, 72 h, Table 3, read-out: Potency [IC50 (µM)]); 11000 nM in the assay on FT282-C11 cells (FT282-C11, CyQuant, Table 4, read-out: IC50). Further, the “Fold HGSOC cell selectivity” value in the assay on FT282-C11 cells is 1.6. The “potency and efficacy” value in the assay with HGSOC cells is on record as “low potency”.
Turning to `c1ccc(Nc2cc3ccccc3c3ccccc23)cc1` [N-phenylphenanthren-9-amine (NP9), N-phenylphenanthren-9-amine], the IC50 in the assay on CAOV3 cells (setting [1]) stood at 23 µM; with OVCAR4 cells (setting [3]) it was 39 µM. For the same compound, the Emax amounted to 85% with CAOV3 cells (setting [2]) and 100% in the assay on OVCAR4 cells (setting [4]). For the same compound, in the assay with HGSOC cells, the “potency and efficacy” value is given as “low potency”.

In general, IC50 refers to the point on the concentration scale where inhibition reaches its midpoint.
